The EC50 is the concentration that produces a half-maximal response. A word on the IC50: it is the concentration that inhibits the measured activity by half. High values mean weaker potency in that assay, low ones greater potency in that assay.

The subject of the assay is CEM cells HIV-1 protection, formazan growth assay. As to the kind of experiment: NCI AIDS Antiviral Assay. As to conditions: for IC50: measured here: growth of uninfected CEM cells. Put shortly:
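Category rules: moderately active means at least 50% protection on retest, and confirmed active means 100% protection reproducibly. The underlying data came from a formazan growth assay in HIV-1-infected CEM cells.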

Each structure is given as a SMILES string. Activity calls are given as the source filed them.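 The calls were made as follows: active = compounds giving half or more protection of infected cells from virus-caused growth loss, again on retest; inactive = the rest.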

`CC(=O)O[C@@H]1CC[C@]2(C)C3CC[C@]4(C)C(C(C)CCc5nc6ccccc6[nH]5)CCC4C3CC[C@@H]2C1` (some centres undefined): the EC50 was greater than 50.1 µM and the IC50 worked out at 15.5 µM. `N#Cc1ccccc1Sc1ccccc1N`: the EC50 is greater than 158 µM and the IC50 is greater than 158 µM. `Cc1cn(C2CC(O[Si](C)(C)C(C)(C)C)C(/C=[N+](\C)[O-])O2)c(=O)[nH]c1=O` (centres undefined): the EC50 is greater than 200 µM and the IC50 came out at 37.2 µM.

`O=C1c2ccccc2C(=O)C1(c1ccccn1)[N+](=O)[O-]`: the EC50 is greater than 200 µM and the IC50 was determined as 72.4 µM. On to `CCSC(CCCC1OCC2OC(n3cc(C)c(=O)[nH]c3=O)CC2N1O)SCC` (centres undefined), for which the EC50 was greater than 200 µM and the IC50 is 135 µM. For `COc1c(C)c(C/C=C(\C)CC/C=C(\C)CC/C=C(\C)CCC=C(C)C)c(OC)c(OC)c1OC`, in that order: greater than 200 µM and greater than 200 µM. Taken in the same sequence, the figures for `COC(=O)C(C(=O)C(=O)Nc1ccccc1C(C)=O)c1nc2ccc(Cl)cc2[nH]c1=O` (centres undefined) were greater than 58.9 µM and greater than 58.9 µM. As for `COc1cc(CN(C)N2C(=O)c3cccc4cc([N+](=O)[O-])cc(c34)C2=O)cc(OC)c1OC`, the outcome was inactive. With `COC(=N)c1ncn(Cc2ccccc2)c1N`, the EC50 was greater than 200 µM and the IC50 worked out at 158 µM. With `O=C1/C(=C/c2ccccc2)CC/C1=C\c1ccccc1`, the result was inactive.

Take `CCN1Cc2c(/C=C/c3ccccc3)nc3ccc(OC)cc3c2N(c2cccc(Cl)c2)C1`: the EC50 is greater than 41.7 µM and the IC50 turned out to be 7.76 µM. Consider `O=S(=O)(O)c1cc(N/N=C/c2cc(S(=O)(=O)O)c3cccnc3c2O)ccc1/C=C/c1ccc(N/N=C/c2cc(S(=O)(=O)O)c3cccnc3c2O)cc1S(=O)(=O)O`, for which the EC50 was 13.5 µM and the IC50 came to 129 µM. Regarding `O=c1c2cc([N+](=O)[O-])ccc2sc2ccsc12`, the EC50 is greater than 97.7 µM and the IC50 was greater than 97.7 µM. As to `CC(C)(C)C(=O)OCOP(=O)(O)OCC1CCC(N2C=CC(N)NC2=O)O1` (centres undefined), the EC50 is 0.0468 µM and the 50% inhibitory concentration (IC50) came to 16.2 µM. Taken in the same sequence, the figures for `NCCCCC(N)C(=O)NCCNc1ccc(NCCNC(=O)C(N)CCCCN)c2c1C(=O)c1ccccc1C2=O` (centres undefined) were greater than 100 µM and 3.39 µM. For `O=C(CCN1CCCC1)c1ccc(Oc2ccc(F)cc2)cc1`, in that order: greater than 200 µM and 110 µM. In the case of `CCCCc1cc(=O)oc2c3c(c4c(c12)OC(C)(C)C=C4)O[C@H](C)[C@@H](C)[C@H]3O`, the EC50 is greater than 63.1 µM and the IC50 worked out at 15.5 µM.

On to `CC(=O)CC(C)=O.CC(=O)CC(C)=O.[O]=[V]`, for which the outcome was inactive.

Take `C[n+]1c(-c2ccc(/C=N/NC(=S)N/N=C/c3ccc(-c4cn5ccccc5[n+]4C)cc3)cc2)cn2ccccc21`: the EC50 is greater than 39.8 µM and the IC50 came out at 21.9 µM. For the molecule `CC(C)(O)[C@H]1CC[C@@]23CCCC(=O)C2(C1)C3` (some centres undefined), the outcome was inactive. On to `CC(C)(C)OC(=O)NC(CSCc1ccc(C(=O)c2ccccc2)cc1)C(=O)N1CCN(CCCCN2c3ccccc3Sc3cc(N=[N+]=[N-])ccc32)CC1` (centres undefined), for which the EC50 was greater than 200 µM and the IC50 is greater than 200 µM. On to `O=C1ON=C2C3CC4CC12CC1(C3)C(=O)ON=C41`, for which the EC50 is greater than 200 µM and the IC50 is greater than 200 µM.

`c1ccc(-c2cc(-c3cccs3)c(-c3cccs3)s2)cc1`: the EC50 is greater than 200 µM and the IC50 is 36.3 µM. The molecule `O=C1c2cccc([N+](=O)[O-])c2C(=O)c2c1oc1ccc3ccccc3c21` showed an EC50 greater than 200 µM and an IC50 greater than 200 µM. For the molecule `CCOC(=O)c1ccc(N/N=[N+](/[O-])CC2OC(n3ccc(=O)[nH]c3=O)C(O[Si](C)(C)C(C)(C)C)C2O[Si](C)(C)C(C)(C)C)cc1` (centres undefined), the EC50 is greater than 200 µM and the IC50 stood at 21.4 µM. In the case of `C1=Nc2ccc(cc2)-c2ccc(cc2)N=Cc2ccc(cc2)OCc2cccc(n2)COc2ccc1cc2`, the EC50 is greater than 100 µM and the half-inhibitory concentration (IC50) was greater than 100 µM.

Take `CC1CCCC2(O1)OC1CC(=O)OC1C1=C2C(=O)c2ccccc2C1=O` (centres undefined): the EC50 is greater than 87.1 µM and the IC50 is 0.417 µM. As to `CC1=C2CC(C)(C)CC(=O)C2(C)CCC1=O` (centres undefined), the outcome was inactive. `CN1CCCOC(c2ccc([N+](=O)[O-])cc2)O1` (centres undefined): the EC50 is greater than 200 µM and the IC50 is greater than 200 µM.

On to `CCCCOC(=O)C(NC(C(=O)OCCCC)c1cc(C(C)(C)C)c(O)c(C(C)(C)C)c1)c1cc(C(C)(C)C)c(O)c(C(C)(C)C)c1` (centres undefined), for which the EC50 is greater than 200 µM and the IC50 was greater than 200 µM.

`COc1ccccc1NC(=O)/C(=C\N1CCNC1=S)C(C)=O`: the EC50 was greater than 200 µM and the IC50 is greater than 200 µM.

With `OC1COCC2N3C(=NN12)Sc1ccccc13` (centres undefined), the outcome was inactive. As for `COc1ccc(C(O)C(=O)c2nc3ccc([N+](=O)[O-])cc3[nH]c2=O)cc1` (centres undefined), the EC50 is 107 µM and the IC50 was determined as 129 µM. For `N#C/C(=C\c1ccc(O)c(O)c1)C(=O)NCCCCCCNC(=O)/C(C#N)=C/c1ccc(O)c(O)c1`, in that order: greater than 200 µM and greater than 200 µM. As to `C=CCO/N=C(\OC(=O)c1ccc([N+](=O)[O-])cc1)c1ccccc1`, the EC50 was greater than 151 µM and the IC50 was greater than 151 µM. Consider `Cn1c(=O)c2[nH]cnc2n(CC(=O)O)c1=O`, for which the EC50 was greater than 1120 µM and the IC50 was greater than 1120 µM. With `Nc1c(N=Nc2ccc([N+](=O)[O-])cc2)c(S(=O)(=O)O)cc2cc(S(=O)(=O)O)c(N=Nc3ccc(-c4ccc(N=Nc5ccc(O)cc5)cc4)cc3)c(O)c12`, the EC50 was greater than 100 µM and the IC50 turned out to be 15.1 µM.

As for `CN(C)c1nc(Oc2nc(N(C)C)nc(N(C)C)n2)nc(N(C)C)n1`, the EC50 was greater than 724 µM and the IC50 worked out at 17.4 µM. Taken in the same sequence, the figures for `CCc1c2c([nH]c(=S)c1C#N)CCC2` were 61.7 µM and greater than 200 µM. Taken in the same sequence, the figures for `CCN1C(=O)C(C)C=C(C)C=C1C` (centres undefined) were greater than 724 µM and greater than 724 µM. Taken in the same sequence, the figures for `O=C(CC(=O)Nc1ccccc1)N/N=C/c1cc(N=Nc2ccc(Br)cc2)ccc1O` were greater than 200 µM and 1.35 µM. Take `N#CCCN(CCC#N)c1ccc(/C=C2\N=C(c3cc([N+](=O)[O-])ccc3Cl)OC2=O)cc1`: the EC50 was greater than 2.34 µM and the IC50 was 0.575 µM. Regarding `CC1CCN(c2nnc(Cl)cc2C(=O)c2ccccc2)CC1`, the EC50 is greater than 200 µM and the IC50 was 52.5 µM. In the case of `Nc1nnc2c(-c3ccccc3)[nH]nc2n1`, the result was inactive. With `CCOC(=O)/C(=C\c1ccc(Cl)cc1)P(=O)(OCC)OCC`, the EC50 was greater than 15.1 µM and the IC50 is 14.1 µM. On to `O=[p+]1c2ccccc2[nH]c2ccccc21`, for which the EC50 is greater than 200 µM and the IC50 was 56.2 µM. For `CNC(=O)OC(COC)CN1CCN(c2ccccc2C)CC1` (centres undefined), in that order: greater than 200 µM and greater than 200 µM. Turning to `COc1ccc(C(=O)CCC2(C)OCCO2)cc1OC`, the EC50 is greater than 646 µM and the IC50 was 479 µM. Taken in the same sequence, the figures for `COC(=O)Nc1cn2nc(C)sc2n1` were greater than 200 µM and greater than 200 µM. Consider `[N-]=[N+]=NC1(c2ccccc2)C(=O)c2cccc3c2N(CCC3)C1=O` (centres undefined), for which the EC50 is greater than 200 µM and the IC50 was determined as 141 µM. Take `CSCC1(O)CCCCC1`: the EC50 was greater than 200 µM and the IC50 is greater than 200 µM. In the case of `CCCCn1c(N)n[nH]c1=S`, the outcome was inactive. As for `O=C(O)C12C3CCC(O3)C1(C(=O)O)C1CCC2O1` (centres undefined), the EC50 is greater than 200 µM and the IC50 is greater than 200 µM. `O=C(O)c1ccc(CSc2ccc(Cl)cc2)c([N+](=O)[O-])c1`: the EC50 was greater than 209 µM and the IC50 stood at 95.5 µM. Regarding `CC(=O)c1c(O)c2c(c(C(C)=O)c1O)OC(C)(C)C=C2`, the EC50 was greater than 9.55 µM and the IC50 was greater than 9.55 µM. On to `COc1ccc2c(=O)oc3c(OC)cc(CCN(C)C)c4c(=O)oc1c2c34`, for which the outcome was inactive. With `COc1c(NS(=O)(=O)c2ccccc2)cc2c3c(cccc13)/C(=C1\Cc3cccc4c(OC)c(NS(=O)(=O)c5ccccc5)cc1c34)C2`, the EC50 was greater than 200 µM and the IC50 was 132 µM.

On to `COC(=O)[C@@H]1C[C@H]2[C@H](c3ccccc3Br)[C@@H](OC(C)=O)[C@@H](OCc3ccccc3)ON2O1`, for which the EC50 was greater than 200 µM and the IC50 was greater than 200 µM. For the molecule `O=C(O)C1OC(n2cc([N+](=O)[O-])c(=O)[nH]c2=O)C(O)C1O` (centres undefined), the EC50 is greater than 200 µM and the IC50 is greater than 200 µM. Regarding `CC(=O)NC1C(OCc2ccccc2)OC(CO)C(O)C1OC(C)C(=O)NC(C)C(=O)NC(CCC(=O)NCCCCNc1c2ccccc2nc2cccc([N+](=O)[O-])c12)C(N)=O` (centres undefined), the EC50 was greater than 200 µM and the IC50 is 0.0631 µM. `CC1=C(C(=O)NC2CCCCC2)CC(C(=O)NC2CCCCC2)=C(C)N1`: the EC50 is greater than 200 µM and the IC50 worked out at 72.4 µM. Turning to `O=C(O)c1cc(=O)c2cccc(O)c2[nH]1`, the EC50 was greater than 200 µM and the IC50 was greater than 200 µM. Take `CCOC1CN(C)C(=Nc2cccc3ccccc23)S1` (centres undefined): the EC50 was 4.9 µM and the IC50 turned out to be 148 µM. For `CC(=O)OC(C)CC[P+](c1ccccc1)(c1ccccc1)c1ccccc1` (centres undefined), in that order: greater than 200 µM and 75.9 µM. For `CC1=Nc2nnnn2N=C(C)C1`, in that order: greater than 234 µM and greater than 234 µM. As to `CCCCCCCCOc1ccc(C(=O)c2ccccc2)c(O)c1`, the EC50 is greater than 200 µM and the IC50 was 95.5 µM. Taken in the same sequence, the figures for `COc1ccc(/C(C)=N\NS(=O)(=O)c2ccc(NC(C)=O)cc2)cc1` were greater than 182 µM and greater than 182 µM. With `O=C(OCCNC(=O)N1CCOCC1)OCCNC(=O)N1CCOCC1`, the EC50 is greater than 200 µM and the IC50 is greater than 200 µM.

As for `COc1ccc2cc1-c1cc(ccc1O)CC1NCCc3cc4c(cc31)Oc1c(c(OC)c(OC)c3c1[C@H](C2)N(C)CC3)O4` (some centres undefined), the EC50 was greater than 6.03 µM and the IC50 was greater than 6.03 µM.

Values taken from PubChem BioAssay AID179 (DTP/NCI, 2004).
